Experimental data published in ChEMBL document CHEMBL4017467, “Generation of tricyclic imidazo[1,2-a]pyrazines as novel PI3K inhibitors by application of a conformational restriction strategy” (Bioorg Med Chem Lett, 2017).

Experiments:
[1] = in vitro; details: human, liver microsomes
[2] = in vitro; details: rat, liver microsomes

remaining at 0.25 h, 1 µM [1]: 93%
remaining at 0.25 h, 1 µM [2]: 99%
SMILES: CS(=O)(=O)N1CCN(Cc2cn3cc(-c4cnc(N)nc4)nc(N4CCOCC4)c3n2)CC1
